Data as given in patent US20190060311A1, “COMPOSITIONS AND METHODS FOR TREATMENT OF VITILIGO” (ACLARIS THERAPEUTICS, INC., priority 2017, published 2019).
Where a name gives a salt, the structure may show the parent alone.

Tests used:
[1] = system: destruction of melanocytes; test: Harris mouse model of vitiligo (adoptive transfer of TCR transgenic T cells), in-life vitiligo scoring; format: in vivo; conditions: both doses (50 and 100 mg/kg), oral gavage QD, scored 5 weeks after initiation of dosing
Excerpt: The primary driver of vitiligo is an autoimmune attack on melanocytes, the cells which give skin its color. The initiating event(s) for this autoimmune attack is unknown, however the key cell type driving the destruction of the melanocytes is the CD8+ cytolytic T cell (CTL). A major cytokine that drives the activation/function of these CTL is IFNy, whose receptor signals via JAK1 and JAK2. Drugs that block the function of JAK1 or JAK2 would be predicted to be efficacious in reversing the autoimmune destruction of melanocytes, and this has been confirmed with pilot studies using tofacitinib (an inhibitor of JAK3/JAK1/JAK2) and ruxolitinib (an inhibitor of JAK1/JAK2). The development of novel therapeutics for treatment of vitiligo would be facilitated by an animal model of disease that specifically recapitulates the key features of the disease (IFNγ CD8+ CTL driven destruction of melanocytes). Dr. John Harris of the University of Massachusetts Medical School has developed such a model. […] Attempted induction of disease is then accomplished using a proprietary method and is measured by the degree of melanocyte destruction. […] In FIG. 1, each symbol represents an individual animal, scored 5 weeks after initiation of dosing. Statistical significance was determined with the Student's T test.

[2] = Plasma drug levels after oral gavage in the mouse vitiligo model; format: in vivo; conditions: oral gavage QD, post dose
[3] = system: non-segmental facial vitiligo; test: Open-label clinical trial, topical treatment of non-segmental facial vitiligo; format: in vivo; conditions: 0.46% (w/w) topical solution twice daily; as early as 4 weeks after initiating treatment
Excerpt: Subjects with a clinical diagnosis of new onset or actively progressing non-segmental facial vitiligo or worsening of existing facial lesions within the past 6 months were enrolled in an open-label clinical trial and treated with a 0.46% (w/w) topical solution formulation of 5-((2-((4-fluoro-3-methoxy-5-methylphenyl)amino)-5-methylpyrimidin-4-yl)amino)benzo[d]oxazol-2(3H)-one hydrochloride applied twice daily for 24 weeks by the protocol-prescribed method.
It is anticipated that the treatment will be judged to be safe and tolerable.

[4] = system: autoimmune destruction of melanocytes; conditions: pilot studies; cited from earlier work

SMILES | efficacy in the model (vitiligo score, FIG. 1) [1] | time plasma drug levels were above the EC50 for blockade of IFNγ signaling ([2]; 50 mg/kg) [h] | time plasma drug levels were above the EC50 for blockade of IFNγ signaling ([2]; 100 mg/kg) [h] | improvement of disease (pigmentation at lesion borders, repigmentation, Facial VASI index) [3] | efficacious in reversing the autoimmune destruction of melanocytes [4]
COc1cc(Nc2ncc(C)c(Nc3ccc4oc(=O)[nH]c4c3)n2)cc(C)c1F [5-((2-((4-fluoro-3-methoxy-5-methylphenyl)amino)-5-methylpyrimidin-4-yl)amino)benzo[d]oxazol-2(3H)-one hydrochloride] | excellent efficacy | 6 | 20 | early improvement in their disease | –
C[C@@H]1CCN(C(=O)CC#N)C[C@@H]1N(C)c1ncnc2[nH]ccc12 [tofacitinib, 3-{(3R,4R)-4-methyl-3-[methyl-(7H-pyrrolo[2,3-d]pyrimidin-4-yl)-amino]-piperidin-1-yl}-3-oxo-propionitrile] | – | – | – | – | confirmed
N#CC[C@H](C1CCCC1)n1cc(-c2ncnc3[nH]ccc23)cn1 [ruxolitinib, (R)-3-(4-(7H-pyrrolo[2,3-d]pyrimidin-4-yl)-1H-pyrazol-1-yl)-3-cyclopentylpropanenitrile] | – | – | – | – | confirmed
